Experimental data from ChEMBL document CHEMBL1201862, “PubChem BioAssay data set” (2004).
Active and inactive are the calls of the source.

How the values were obtained:
[1] = system: HEK293; experiment: NOD1 signaling inhibitors, primary screen, cell-based, luminescence, uHTS (AID 1578); type: functional; conditions: Homo sapiens
[2] = system: HEK293; experiment: cells; type: functional, cell-based; conditions: Homo sapiens
[3] = system: HEK293; experiment: cells; type: functional, cell-based; conditions: Homo sapiens; remark: listed apart in the source
[4] = biological target: Nucleotide-binding oligomerization domain-containing protein 2 (Homo sapiens, UniProt Q9HC29); experiment: NOD2 signaling inhibitors, cell-based, luminescence, uHTS, HEK293 (AID 1566); type: functional
Chain of Nucleotide-binding oligomerization domain-containing protein 2 (Q9HC29 whole entry, the tested form may be a part): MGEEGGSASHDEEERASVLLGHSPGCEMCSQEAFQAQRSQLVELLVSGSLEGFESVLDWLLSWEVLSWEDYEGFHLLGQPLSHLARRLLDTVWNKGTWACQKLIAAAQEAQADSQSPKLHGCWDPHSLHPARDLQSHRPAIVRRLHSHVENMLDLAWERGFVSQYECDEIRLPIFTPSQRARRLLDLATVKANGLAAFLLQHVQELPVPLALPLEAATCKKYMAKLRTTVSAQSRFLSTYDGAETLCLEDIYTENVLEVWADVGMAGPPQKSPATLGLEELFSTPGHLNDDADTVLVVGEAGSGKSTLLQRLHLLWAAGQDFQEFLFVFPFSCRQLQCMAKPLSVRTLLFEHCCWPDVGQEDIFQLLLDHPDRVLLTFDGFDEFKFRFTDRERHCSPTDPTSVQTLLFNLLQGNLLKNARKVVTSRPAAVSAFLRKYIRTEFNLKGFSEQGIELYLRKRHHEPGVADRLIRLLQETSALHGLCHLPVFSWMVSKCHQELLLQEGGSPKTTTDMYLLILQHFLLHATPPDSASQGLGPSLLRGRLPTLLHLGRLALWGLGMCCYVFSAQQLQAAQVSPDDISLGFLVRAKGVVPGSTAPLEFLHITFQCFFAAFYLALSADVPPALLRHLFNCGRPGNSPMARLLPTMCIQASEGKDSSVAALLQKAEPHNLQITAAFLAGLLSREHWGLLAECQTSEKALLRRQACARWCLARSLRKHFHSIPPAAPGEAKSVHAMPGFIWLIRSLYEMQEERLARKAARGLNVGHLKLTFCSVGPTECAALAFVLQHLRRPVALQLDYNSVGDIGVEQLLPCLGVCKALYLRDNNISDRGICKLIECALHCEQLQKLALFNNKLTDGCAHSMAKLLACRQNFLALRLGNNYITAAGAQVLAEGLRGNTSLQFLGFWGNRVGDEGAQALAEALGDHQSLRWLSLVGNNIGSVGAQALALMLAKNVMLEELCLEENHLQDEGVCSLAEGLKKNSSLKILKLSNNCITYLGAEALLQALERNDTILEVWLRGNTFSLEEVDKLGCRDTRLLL

[5] = system: HEK293; experiment: NOD2 signaling inhibitors in MDP-stimulated cells, cell-based, uHTS, luminescence (AID 2001); type: functional; conditions: Homo sapiens
[6] = system: HEK293; experiment: cells; type: functional, cell-based; conditions: Homo sapiens; remark: listed apart in the source
[7] = Luminescence Cell-Based Dose Retest to Confirm Inhibitors of Cancer Stem Cells. [Related pubchem assays (depositor defined):AID2717, AID2721]; type: functional; conditions: Homo sapiens
[8] = biological target: T1, Microphthalmia-associated transcription factor (Homo sapiens, UniProt O75030); experiment: TRPM1 promoter luciferase signal decrease, dose response, MITF inhibitor project, cell-based, SK-MEL-5, cherry-picked, set 3 (AID 493073); type: functional
T1 sequence (O75030 whole entry): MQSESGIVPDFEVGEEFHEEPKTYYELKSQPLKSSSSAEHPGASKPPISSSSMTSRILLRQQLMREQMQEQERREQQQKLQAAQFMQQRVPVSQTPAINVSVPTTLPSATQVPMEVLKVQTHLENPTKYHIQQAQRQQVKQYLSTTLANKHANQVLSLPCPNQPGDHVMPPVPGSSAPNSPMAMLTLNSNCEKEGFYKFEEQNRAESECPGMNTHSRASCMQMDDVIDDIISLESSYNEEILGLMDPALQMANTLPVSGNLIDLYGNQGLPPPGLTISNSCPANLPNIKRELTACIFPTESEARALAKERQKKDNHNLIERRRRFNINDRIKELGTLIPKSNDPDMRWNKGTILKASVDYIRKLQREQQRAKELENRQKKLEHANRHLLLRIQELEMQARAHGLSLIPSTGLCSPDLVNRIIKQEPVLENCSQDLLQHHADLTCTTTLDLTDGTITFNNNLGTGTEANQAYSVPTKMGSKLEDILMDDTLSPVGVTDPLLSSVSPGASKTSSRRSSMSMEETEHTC

[9] = system: H9c2; experiment: cells; type: functional, cell-based; conditions: Rattus norvegicus, H9c2, Myocardium;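 note: confirmatory concentration-response retest of ultra-high-throughput screening hits for modulation of myocardial damage; cell death induced by hydrogen peroxide oxidative stress; compound pretreatment for 60 min then peroxide exposure for 2 h; potency is for protecting the cells against peroxide damage rather than for killing them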
[10] = biological target: T2, Short transient receptor potential channel 4 (Mus musculus, UniProt Q9QUQ5); experiment: mouse TRPC4 channel activators, dose response, cell-based, HEK293 TRPC4/mu-opioid, Fluo-4 calcium (AID 434937); type: functional
T2 sequence (Q9QUQ5 whole entry): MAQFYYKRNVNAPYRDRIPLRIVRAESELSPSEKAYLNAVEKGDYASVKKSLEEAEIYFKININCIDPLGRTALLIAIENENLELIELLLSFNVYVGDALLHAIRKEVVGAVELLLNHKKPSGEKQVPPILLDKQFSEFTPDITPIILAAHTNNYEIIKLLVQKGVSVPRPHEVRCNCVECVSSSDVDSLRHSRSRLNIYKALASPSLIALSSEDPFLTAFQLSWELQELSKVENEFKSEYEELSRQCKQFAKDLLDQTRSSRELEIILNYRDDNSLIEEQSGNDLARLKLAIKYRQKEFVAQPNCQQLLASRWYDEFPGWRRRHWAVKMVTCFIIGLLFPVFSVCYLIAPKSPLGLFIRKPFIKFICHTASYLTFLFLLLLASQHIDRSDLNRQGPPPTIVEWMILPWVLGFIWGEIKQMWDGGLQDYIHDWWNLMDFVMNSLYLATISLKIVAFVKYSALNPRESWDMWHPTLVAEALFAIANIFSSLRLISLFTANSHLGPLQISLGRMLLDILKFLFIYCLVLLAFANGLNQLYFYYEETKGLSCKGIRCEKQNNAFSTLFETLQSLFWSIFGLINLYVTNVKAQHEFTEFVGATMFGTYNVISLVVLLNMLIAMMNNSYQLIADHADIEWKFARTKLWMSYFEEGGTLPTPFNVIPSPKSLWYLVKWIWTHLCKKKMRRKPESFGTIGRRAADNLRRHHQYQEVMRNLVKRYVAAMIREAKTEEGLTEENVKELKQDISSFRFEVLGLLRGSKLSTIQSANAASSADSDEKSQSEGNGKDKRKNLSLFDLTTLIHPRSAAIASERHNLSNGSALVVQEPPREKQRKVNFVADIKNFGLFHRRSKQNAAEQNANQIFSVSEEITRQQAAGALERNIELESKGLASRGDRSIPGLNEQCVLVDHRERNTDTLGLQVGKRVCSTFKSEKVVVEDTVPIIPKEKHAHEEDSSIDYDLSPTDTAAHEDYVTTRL

[11] = biological target: T3, Voltage-gated N-type calcium channel alpha-1B subunit/Amyloid beta A4 precursor protein-binding family A member 1 (Homo sapiens, UniProt Q00975+Q02410); type: protein assay
T3 sequence (Q00975 whole entry): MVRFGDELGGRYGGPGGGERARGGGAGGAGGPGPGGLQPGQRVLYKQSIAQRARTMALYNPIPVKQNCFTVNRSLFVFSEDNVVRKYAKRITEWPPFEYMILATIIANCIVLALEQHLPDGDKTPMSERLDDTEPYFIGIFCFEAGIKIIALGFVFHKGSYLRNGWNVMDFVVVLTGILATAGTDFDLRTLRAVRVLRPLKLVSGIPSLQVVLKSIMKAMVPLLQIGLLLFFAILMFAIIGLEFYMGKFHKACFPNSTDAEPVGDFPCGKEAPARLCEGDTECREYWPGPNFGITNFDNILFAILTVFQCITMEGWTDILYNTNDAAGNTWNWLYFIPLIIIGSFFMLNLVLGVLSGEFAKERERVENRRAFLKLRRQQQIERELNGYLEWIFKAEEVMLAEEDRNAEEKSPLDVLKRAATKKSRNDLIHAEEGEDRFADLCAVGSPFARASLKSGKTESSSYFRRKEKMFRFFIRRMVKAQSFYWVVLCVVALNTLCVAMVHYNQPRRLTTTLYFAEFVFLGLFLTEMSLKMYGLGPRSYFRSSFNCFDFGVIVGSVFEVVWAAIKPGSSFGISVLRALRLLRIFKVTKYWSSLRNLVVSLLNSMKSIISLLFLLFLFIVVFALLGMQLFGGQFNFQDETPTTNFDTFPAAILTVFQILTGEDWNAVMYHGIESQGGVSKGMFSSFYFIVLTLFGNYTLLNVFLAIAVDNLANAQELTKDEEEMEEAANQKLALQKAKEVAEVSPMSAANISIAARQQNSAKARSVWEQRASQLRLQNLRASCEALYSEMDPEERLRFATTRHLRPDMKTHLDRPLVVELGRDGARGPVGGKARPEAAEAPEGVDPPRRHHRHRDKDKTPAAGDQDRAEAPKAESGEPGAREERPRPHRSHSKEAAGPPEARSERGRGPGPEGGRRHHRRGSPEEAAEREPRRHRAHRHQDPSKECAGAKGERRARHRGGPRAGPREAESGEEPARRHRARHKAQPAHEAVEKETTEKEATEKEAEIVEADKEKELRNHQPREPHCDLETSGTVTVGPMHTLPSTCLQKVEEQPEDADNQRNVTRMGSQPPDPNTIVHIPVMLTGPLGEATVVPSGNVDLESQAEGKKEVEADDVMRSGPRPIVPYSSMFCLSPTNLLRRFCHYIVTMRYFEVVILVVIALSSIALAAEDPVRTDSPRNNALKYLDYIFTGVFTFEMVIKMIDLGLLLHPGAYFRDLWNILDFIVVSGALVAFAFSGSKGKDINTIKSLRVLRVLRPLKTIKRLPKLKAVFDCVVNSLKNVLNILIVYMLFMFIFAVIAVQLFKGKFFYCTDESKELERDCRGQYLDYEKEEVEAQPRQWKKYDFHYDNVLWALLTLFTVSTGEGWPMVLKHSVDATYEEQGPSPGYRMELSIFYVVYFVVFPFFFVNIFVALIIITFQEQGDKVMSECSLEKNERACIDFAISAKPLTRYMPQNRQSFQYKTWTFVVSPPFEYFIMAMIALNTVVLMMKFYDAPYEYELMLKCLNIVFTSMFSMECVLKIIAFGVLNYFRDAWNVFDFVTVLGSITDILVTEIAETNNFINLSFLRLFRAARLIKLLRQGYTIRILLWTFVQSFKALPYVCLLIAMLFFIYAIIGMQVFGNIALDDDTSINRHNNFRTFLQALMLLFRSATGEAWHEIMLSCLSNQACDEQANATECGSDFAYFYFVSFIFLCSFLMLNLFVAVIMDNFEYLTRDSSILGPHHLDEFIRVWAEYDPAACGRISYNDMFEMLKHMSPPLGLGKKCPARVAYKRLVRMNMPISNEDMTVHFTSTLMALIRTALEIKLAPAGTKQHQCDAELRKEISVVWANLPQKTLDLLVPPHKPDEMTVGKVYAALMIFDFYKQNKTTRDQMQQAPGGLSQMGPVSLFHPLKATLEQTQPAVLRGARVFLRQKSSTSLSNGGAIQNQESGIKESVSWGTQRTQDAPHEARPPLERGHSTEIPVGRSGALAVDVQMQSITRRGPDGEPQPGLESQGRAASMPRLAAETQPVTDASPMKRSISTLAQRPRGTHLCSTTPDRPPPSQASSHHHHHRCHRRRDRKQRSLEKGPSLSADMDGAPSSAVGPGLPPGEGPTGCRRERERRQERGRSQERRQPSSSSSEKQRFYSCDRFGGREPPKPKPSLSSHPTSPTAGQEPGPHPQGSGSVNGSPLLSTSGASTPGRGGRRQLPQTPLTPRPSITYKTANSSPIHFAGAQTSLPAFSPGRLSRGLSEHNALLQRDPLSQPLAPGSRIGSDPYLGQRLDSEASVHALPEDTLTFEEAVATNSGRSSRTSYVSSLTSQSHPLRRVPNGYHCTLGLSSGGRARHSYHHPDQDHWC
T3 sequence (Q02410 whole entry): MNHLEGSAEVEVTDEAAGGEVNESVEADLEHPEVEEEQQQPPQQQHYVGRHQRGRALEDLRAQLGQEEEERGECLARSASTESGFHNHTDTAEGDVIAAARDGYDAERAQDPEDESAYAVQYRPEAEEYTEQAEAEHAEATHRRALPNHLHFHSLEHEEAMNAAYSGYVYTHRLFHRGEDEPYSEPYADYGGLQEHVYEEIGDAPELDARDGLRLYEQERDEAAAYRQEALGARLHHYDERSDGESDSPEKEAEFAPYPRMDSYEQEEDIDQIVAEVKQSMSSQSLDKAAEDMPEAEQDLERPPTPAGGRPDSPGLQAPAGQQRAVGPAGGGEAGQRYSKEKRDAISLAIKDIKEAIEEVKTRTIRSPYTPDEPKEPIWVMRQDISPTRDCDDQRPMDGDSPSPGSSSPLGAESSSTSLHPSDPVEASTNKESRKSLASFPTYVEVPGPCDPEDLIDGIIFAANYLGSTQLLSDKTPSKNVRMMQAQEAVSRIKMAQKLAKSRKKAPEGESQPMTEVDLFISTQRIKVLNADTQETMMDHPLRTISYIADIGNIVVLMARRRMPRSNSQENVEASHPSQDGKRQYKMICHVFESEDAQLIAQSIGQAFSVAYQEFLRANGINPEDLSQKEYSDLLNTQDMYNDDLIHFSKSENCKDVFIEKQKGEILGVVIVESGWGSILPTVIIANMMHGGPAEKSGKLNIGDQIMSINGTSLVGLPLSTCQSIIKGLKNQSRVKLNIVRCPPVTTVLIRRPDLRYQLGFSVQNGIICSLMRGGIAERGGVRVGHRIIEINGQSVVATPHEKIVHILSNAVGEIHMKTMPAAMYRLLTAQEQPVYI

[12] = biological target: T3, Voltage-gated N-type calcium channel alpha-1B subunit/Amyloid beta A4 precursor protein-binding family A member 1; type: protein assay; remark: listed apart in the source
[13] = HeLa cell cytotoxicity, dose response, cytotoxicity control for MgcRacGAP inhibitor project (AID 624300); type: functional
[14] = biological target: T4, Rac GTPase-activating protein 1 (Homo sapiens, UniProt Q9H0H5); experiment: MgcRacGAP GTPase-activating activity inhibitors, confirmation, biochemical, ADP Hunter fluorescence, primary and confirmatory (AID 624330); type: functional
T4 sequence (Q9H0H5 whole entry): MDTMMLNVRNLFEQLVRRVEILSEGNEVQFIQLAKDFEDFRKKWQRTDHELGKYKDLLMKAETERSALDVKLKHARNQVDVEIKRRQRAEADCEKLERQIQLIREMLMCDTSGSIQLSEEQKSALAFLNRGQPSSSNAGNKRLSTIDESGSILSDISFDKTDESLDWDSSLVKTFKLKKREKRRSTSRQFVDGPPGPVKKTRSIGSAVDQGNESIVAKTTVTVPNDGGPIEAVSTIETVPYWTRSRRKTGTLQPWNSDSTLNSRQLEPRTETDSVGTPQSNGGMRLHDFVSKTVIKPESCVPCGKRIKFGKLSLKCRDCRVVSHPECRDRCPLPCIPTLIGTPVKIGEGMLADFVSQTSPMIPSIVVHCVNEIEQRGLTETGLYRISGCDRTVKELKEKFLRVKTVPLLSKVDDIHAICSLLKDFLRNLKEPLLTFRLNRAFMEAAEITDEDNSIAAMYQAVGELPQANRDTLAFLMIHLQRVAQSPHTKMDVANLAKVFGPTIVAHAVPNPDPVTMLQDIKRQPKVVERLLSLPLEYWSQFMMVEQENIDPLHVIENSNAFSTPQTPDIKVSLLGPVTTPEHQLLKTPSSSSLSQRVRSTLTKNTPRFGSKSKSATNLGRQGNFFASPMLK

[15] = biological target: T5, Eukaryotic translation initiation factor 2-alpha kinase 3 (Homo sapiens, UniProt Q9NZJ5); experiment: Dose response cell-based high-throughput screening assay to measure PERK inhibition. [Related pubchem assays: 1416 ]; type: functional
T5 sequence (Q9NZJ5 whole entry): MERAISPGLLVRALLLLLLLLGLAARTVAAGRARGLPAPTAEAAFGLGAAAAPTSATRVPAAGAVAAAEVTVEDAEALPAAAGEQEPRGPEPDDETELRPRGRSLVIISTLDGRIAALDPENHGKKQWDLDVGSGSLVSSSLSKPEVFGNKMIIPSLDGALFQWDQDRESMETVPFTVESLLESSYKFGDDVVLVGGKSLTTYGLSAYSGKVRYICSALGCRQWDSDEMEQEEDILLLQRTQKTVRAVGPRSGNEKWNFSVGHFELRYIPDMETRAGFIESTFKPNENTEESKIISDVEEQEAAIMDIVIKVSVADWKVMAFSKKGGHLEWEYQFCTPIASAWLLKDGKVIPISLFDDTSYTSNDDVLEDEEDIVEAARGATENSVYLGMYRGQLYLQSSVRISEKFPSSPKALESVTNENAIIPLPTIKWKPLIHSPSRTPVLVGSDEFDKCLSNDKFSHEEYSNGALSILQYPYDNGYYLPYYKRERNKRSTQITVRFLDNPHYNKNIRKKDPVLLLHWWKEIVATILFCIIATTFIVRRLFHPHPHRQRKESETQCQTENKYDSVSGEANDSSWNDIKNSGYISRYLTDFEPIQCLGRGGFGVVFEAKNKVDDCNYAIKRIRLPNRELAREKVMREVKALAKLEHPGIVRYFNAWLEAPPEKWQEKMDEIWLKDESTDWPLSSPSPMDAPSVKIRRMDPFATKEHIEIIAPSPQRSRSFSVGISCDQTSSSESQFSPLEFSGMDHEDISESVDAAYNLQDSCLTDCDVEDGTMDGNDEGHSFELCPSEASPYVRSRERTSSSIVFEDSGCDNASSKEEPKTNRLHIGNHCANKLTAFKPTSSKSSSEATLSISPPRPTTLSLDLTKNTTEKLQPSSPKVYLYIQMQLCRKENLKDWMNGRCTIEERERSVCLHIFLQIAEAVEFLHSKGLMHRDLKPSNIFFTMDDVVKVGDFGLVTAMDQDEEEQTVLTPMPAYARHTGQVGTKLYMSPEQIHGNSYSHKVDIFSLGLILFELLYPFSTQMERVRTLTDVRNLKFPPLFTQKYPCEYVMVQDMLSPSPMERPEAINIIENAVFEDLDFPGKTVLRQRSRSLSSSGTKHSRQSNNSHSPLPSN

[16] = biological target: Luciferin 4-monooxygenase (Photinus pyralis, UniProt P08659); experiment: firefly luciferase enzyme inhibitors, dose response, biochemical, luminescence (AID 1891)
Chain of Luciferin 4-monooxygenase (P08659 whole entry): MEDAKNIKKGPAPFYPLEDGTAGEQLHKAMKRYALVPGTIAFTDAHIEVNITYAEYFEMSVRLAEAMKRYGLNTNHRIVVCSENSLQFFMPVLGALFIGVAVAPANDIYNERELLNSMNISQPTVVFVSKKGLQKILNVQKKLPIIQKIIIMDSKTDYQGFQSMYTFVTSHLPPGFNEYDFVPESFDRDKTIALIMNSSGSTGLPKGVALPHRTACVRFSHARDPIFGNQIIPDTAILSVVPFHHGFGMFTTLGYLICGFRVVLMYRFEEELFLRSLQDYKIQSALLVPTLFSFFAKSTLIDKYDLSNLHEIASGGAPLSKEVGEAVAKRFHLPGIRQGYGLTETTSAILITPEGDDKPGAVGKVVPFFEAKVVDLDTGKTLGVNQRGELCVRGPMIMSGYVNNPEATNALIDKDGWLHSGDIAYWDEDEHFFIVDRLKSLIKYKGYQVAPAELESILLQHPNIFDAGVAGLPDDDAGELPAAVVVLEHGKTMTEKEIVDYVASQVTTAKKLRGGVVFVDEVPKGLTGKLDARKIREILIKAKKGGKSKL

[17] = Luminescence Cell-Based Dose Confirmation HTS to Identify Inhibitors of Platelet Dense Granule Release. [Related pubchem assays: 1663 (Primary HTS), 1678 (Summary of Project)]; type: functional
[18] = biological target: T5, Eukaryotic translation initiation factor 2-alpha kinase 3; experiment: Counterscreen assay for PERK inhibitors: Dose response cell-based high throughput screening assay to measure inhibition of PERK at 6 hours. [Related pubchem assays: 1522, 1416 ]; type: functional
[19] = biological target: T6, High affinity choline transporter 1 (Homo sapiens, UniProt Q9GZV3); experiment: CHT inhibitors, dose response, cell-based, 5-point CRC, membrane potential dye (AID 504840); type: functional
T6 sequence (Q9GZV3 whole entry): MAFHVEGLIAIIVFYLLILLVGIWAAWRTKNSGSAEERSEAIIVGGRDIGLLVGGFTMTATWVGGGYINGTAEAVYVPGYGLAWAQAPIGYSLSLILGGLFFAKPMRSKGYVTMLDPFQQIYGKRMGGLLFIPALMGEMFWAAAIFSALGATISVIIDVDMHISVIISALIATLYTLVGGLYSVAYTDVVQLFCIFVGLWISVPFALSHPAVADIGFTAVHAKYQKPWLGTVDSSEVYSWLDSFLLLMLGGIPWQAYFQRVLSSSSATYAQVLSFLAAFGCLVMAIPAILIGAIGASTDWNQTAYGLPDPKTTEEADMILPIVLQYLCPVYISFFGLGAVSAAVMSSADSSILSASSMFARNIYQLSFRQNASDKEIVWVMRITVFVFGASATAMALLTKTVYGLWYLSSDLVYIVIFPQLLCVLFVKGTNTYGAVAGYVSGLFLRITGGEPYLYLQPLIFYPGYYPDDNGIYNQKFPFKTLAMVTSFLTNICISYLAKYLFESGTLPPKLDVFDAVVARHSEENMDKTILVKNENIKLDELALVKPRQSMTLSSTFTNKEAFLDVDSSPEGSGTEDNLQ

[20] = biological target: T6, High affinity choline transporter 1; experiment: CHT inhibitors, dose response, cell-based, 10-point CRC, membrane potential dye (AID 588401); type: functional;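 note: membrane potential dye fluorescence of choline-evoked depolarization via CHT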
[21] = HEp-2 cell cytotoxicity, dose response, cytotoxicity control for RSV inhibitor project, HTS (AID 2410); type: functional; conditions: human respiratory syncytial virus
[22] = cells

SMILES	EC50 [1]	IC50 [2]	IC50 [3]	EC50 [4]	IC50 [5]	IC50 [6]	IC50 [9]	EC50 [10]	other results
COc1cc(Br)cc(/C=C/c2ccc3cccc(O)c3n2)c1O	5.78 µM (active)	8.18 µM (active)	> 20 µM (inactive)	> 20 µM (inactive)	6.96 µM (inactive)	> 20 µM (inactive)			AC50 [7]: 1.44 µM (active)
COc1ccc2cc3cc(C(=O)NCCc4ccc(OC)c(OC)c4)oc3nc2c1	9.01 µM (active)	4.8 µM (active)	> 20 µM (inactive)	7.83 µM (active)	5.18 µM (active)	18.9 µM (active)	> 79 µM (inactive)		AC50 [8]: 16.2 µM (active)
CCN1CCN(c2ccc(S(=O)(=O)N3CCCCC3)cc2NC(=O)c2cccc(C)c2[N+](=O)[O-])CC1								2.99 µM (active)	
COc1cc(/C=C/c2nc3ccccc3c(=O)n2-c2ccccc2O)ccc1O							9.09 µM (active)		IC50 [11]: > 56.8 µM (not active); IC50 [12]: > 50 µM (inactive); CC50 [13]: 94 µM (active); IC50 [14]: 40.6 µM (active)
Nc1nc(Cl)nc2c1ncn2[C@@H]1O[C@H](CO)[C@@H](O)[C@H]1O									EC50 [15]: > 55.7 µM (not active); EC50 [16]: > 112 µM (not active); EC50 [17]: < 0.701 µM (active); EC50 [18]: > 55.7 µM (not active); IC50 [19]: 0.74 µM (active); IC50 [20]: 0.336 µM (active)
CC(C)(C)c1cc(O)c(C(C)(C)C)cc1O								0.376 µM (active)	CC50 [21]: > 50 µM (active); IC50 [22]: 37.2 µM (active)
